In patent US20140094424A1, “MICROBICIDAL COMPOSITIONS AND METHODS OF PRODUCTION USE THEREOF” (priority 2011, published 2014):

Experiments:
[1] = test system: Pseudomonas fluorescens (D); assay: MBC (minimum bactericidal concentration) test in Wash NEXT reagent; type: cell-based
[2] = test system: Pseudomonas aeruginosa (AY); assay: as above; type: cell-based

Cc1cc(NS(=O)(=O)c2ccc(N)cc2)no1 [Sulfamethoxazole, sulfamethoxazole]
MBC test growth score ([1]; 10% preservative, 8 hour): +
MBC test growth score ([1]; 10% preservative, 24 hour): +
MBC test growth score ([1]; 10% preservative, 48 hour): +/−
MBC test growth score ([1]; 10% preservative, 72 hour): +/−
MBC test growth score ([1]; 20% preservative, 8 hour): +
MBC test growth score ([1]; 20% preservative, 24 hour): +
MBC test growth score ([1]; 20% preservative, 48 hour): +/−
MBC test growth score ([1]; 20% preservative, 72 hour): +/−
MBC test growth score ([1]; 30% preservative, 8 hour): +
MBC test growth score ([1]; 30% preservative, 24 hour): +
MBC test growth score ([1]; 30% preservative, 48 hour): +
MBC test growth score ([1]; 30% preservative, 72 hour): +/−
MBC test growth score ([1]; 40% preservative, 8 hour): +
MBC test growth score ([1]; 40% preservative, 24 hour): +
MBC test growth score ([1]; 40% preservative, 48 hour): +
MBC test growth score ([1]; 40% preservative, 72 hour): +/−
MBC test growth score ([1]; 50% preservative, 8 hour): +
MBC test growth score ([1]; 50% preservative, 24 hour): +
MBC test growth score ([1]; 50% preservative, 48 hour): +
MBC test growth score ([1]; 50% preservative, 72 hour): +/−
MBC test growth score ([1]; 60% preservative, 8 hour): +
MBC test growth score ([1]; 60% preservative, 24 hour): +
MBC test growth score ([1]; 60% preservative, 48 hour): +
MBC test growth score ([1]; 60% preservative, 72 hour): +/−
MBC test growth score ([1]; 70% preservative, 8 hour): +
MBC test growth score ([1]; 70% preservative, 24 hour): +
MBC test growth score ([1]; 70% preservative, 48 hour): +
MBC test growth score ([1]; 70% preservative, 72 hour): +/−
MBC test growth score ([1]; 80% preservative, 8 hour): +
MBC test growth score ([1]; 80% preservative, 24 hour): +
MBC test growth score ([1]; 80% preservative, 48 hour): +
MBC test growth score ([1]; 80% preservative, 72 hour): +/−
MBC test growth score ([1]; 90% preservative, 8 hour): +
MBC test growth score ([1]; 90% preservative, 24 hour): +
MBC test growth score ([1]; 90% preservative, 48 hour): +
MBC test growth score ([1]; 90% preservative, 72 hour): +/−
MBC test growth score ([1]; 100% preservative, 8 hour): +
MBC test growth score ([1]; 100% preservative, 24 hour): +
MBC test growth score ([1]; 100% preservative, 48 hour): +
MBC test growth score ([1]; 100% preservative, 72 hour): +/−
MBC test growth score ([2]; 10% preservative, 8 hour): +
MBC test growth score ([2]; 10% preservative, 24 hour): +
MBC test growth score ([2]; 10% preservative, 48 hour): +
MBC test growth score ([2]; 10% preservative, 72 hour): +
MBC test growth score ([2]; 20% preservative, 8 hour): +
MBC test growth score ([2]; 20% preservative, 24 hour): +
MBC test growth score ([2]; 20% preservative, 48 hour): +
MBC test growth score ([2]; 20% preservative, 72 hour): +
MBC test growth score ([2]; 30% preservative, 8 hour): +
MBC test growth score ([2]; 30% preservative, 24 hour): +
MBC test growth score ([2]; 30% preservative, 48 hour): +
MBC test growth score ([2]; 30% preservative, 72 hour): +
MBC test growth score ([2]; 40% preservative, 8 hour): +
MBC test growth score ([2]; 40% preservative, 24 hour): +
MBC test growth score ([2]; 40% preservative, 48 hour): +
MBC test growth score ([2]; 40% preservative, 72 hour): +
MBC test growth score ([2]; 50% preservative, 8 hour): +
MBC test growth score ([2]; 50% preservative, 24 hour): +
MBC test growth score ([2]; 50% preservative, 48 hour): +
MBC test growth score ([2]; 50% preservative, 72 hour): +
MBC test growth score ([2]; 60% preservative, 8 hour): +
MBC test growth score ([2]; 60% preservative, 24 hour): +
MBC test growth score ([2]; 60% preservative, 48 hour): +
MBC test growth score ([2]; 60% preservative, 72 hour): +
MBC test growth score ([2]; 70% preservative, 8 hour): +
MBC test growth score ([2]; 70% preservative, 24 hour): +
MBC test growth score ([2]; 70% preservative, 48 hour): +
MBC test growth score ([2]; 70% preservative, 72 hour): +
MBC test growth score ([2]; 80% preservative, 8 hour): +
MBC test growth score ([2]; 80% preservative, 24 hour): +
MBC test growth score ([2]; 80% preservative, 48 hour): +
MBC test growth score ([2]; 80% preservative, 72 hour): +
MBC test growth score ([2]; 90% preservative, 8 hour): +
MBC test growth score ([2]; 90% preservative, 24 hour): +
MBC test growth score ([2]; 90% preservative, 48 hour): +
MBC test growth score ([2]; 90% preservative, 72 hour): +
MBC test growth score ([2]; 100% preservative, 8 hour): +
MBC test growth score ([2]; 100% preservative, 24 hour): +
MBC test growth score ([2]; 100% preservative, 48 hour): +
MBC test growth score ([2]; 100% preservative, 72 hour): +

gentamicin
MBC test growth score ([1]; 10% preservative, 8 hour): +
MBC test growth score ([1]; 10% preservative, 24 hour): +
MBC test growth score ([1]; 10% preservative, 48 hour): +/−
MBC test growth score ([1]; 10% preservative, 72 hour): 15
MBC test growth score ([1]; 20% preservative, 8 hour): +
MBC test growth score ([1]; 20% preservative, 24 hour): +
MBC test growth score ([1]; 20% preservative, 48 hour): +/−
MBC test growth score ([1]; 20% preservative, 72 hour): 12
MBC test growth score ([1]; 30% preservative, 8 hour): +
MBC test growth score ([1]; 30% preservative, 24 hour): +/−
MBC test growth score ([1]; 30% preservative, 48 hour): +/−
MBC test growth score ([1]; 30% preservative, 72 hour): −
MBC test growth score ([1]; 40% preservative, 8 hour): +
MBC test growth score ([1]; 40% preservative, 24 hour): +/−
MBC test growth score ([1]; 40% preservative, 48 hour): +/−
MBC test growth score ([1]; 40% preservative, 72 hour): −
MBC test growth score ([1]; 50% preservative, 8 hour): +/−
MBC test growth score ([1]; 50% preservative, 24 hour): 14
MBC test growth score ([1]; 50% preservative, 48 hour): +/−
MBC test growth score ([1]; 50% preservative, 72 hour): −
MBC test growth score ([1]; 60% preservative, 8 hour): +/−
MBC test growth score ([1]; 60% preservative, 24 hour): 13
MBC test growth score ([1]; 60% preservative, 48 hour): +/−
MBC test growth score ([1]; 60% preservative, 72 hour): −
MBC test growth score ([1]; 70% preservative, 8 hour): +/−
MBC test growth score ([1]; 70% preservative, 24 hour): 5
MBC test growth score ([1]; 70% preservative, 48 hour): −
MBC test growth score ([1]; 70% preservative, 72 hour): −
MBC test growth score ([1]; 80% preservative, 8 hour): +/−
MBC test growth score ([1]; 80% preservative, 24 hour): 5
MBC test growth score ([1]; 80% preservative, 48 hour): −
MBC test growth score ([1]; 80% preservative, 72 hour): −
MBC test growth score ([1]; 90% preservative, 8 hour): +/−
MBC test growth score ([1]; 90% preservative, 24 hour): 1
MBC test growth score ([1]; 90% preservative, 48 hour): −
MBC test growth score ([1]; 90% preservative, 72 hour): −
MBC test growth score ([1]; 100% preservative, 8 hour): +/−
MBC test growth score ([1]; 100% preservative, 24 hour): −
MBC test growth score ([1]; 100% preservative, 48 hour): −
MBC test growth score ([1]; 100% preservative, 72 hour): −
MBC test growth score ([2]; 10% preservative, 8 hour): +/−
MBC test growth score ([2]; 10% preservative, 24 hour): −
MBC test growth score ([2]; 10% preservative, 48 hour): −
MBC test growth score ([2]; 10% preservative, 72 hour): −
MBC test growth score ([2]; 20% preservative, 8 hour): +/−
MBC test growth score ([2]; 20% preservative, 24 hour): −
MBC test growth score ([2]; 20% preservative, 48 hour): −
MBC test growth score ([2]; 20% preservative, 72 hour): −
MBC test growth score ([2]; 30% preservative, 8 hour): −
MBC test growth score ([2]; 30% preservative, 24 hour): −
MBC test growth score ([2]; 30% preservative, 48 hour): −
MBC test growth score ([2]; 30% preservative, 72 hour): −
MBC test growth score ([2]; 40% preservative, 8 hour): −
MBC test growth score ([2]; 40% preservative, 24 hour): −
MBC test growth score ([2]; 40% preservative, 48 hour): −
MBC test growth score ([2]; 40% preservative, 72 hour): −
MBC test growth score ([2]; 50% preservative, 8 hour): −
MBC test growth score ([2]; 50% preservative, 24 hour): −
MBC test growth score ([2]; 50% preservative, 48 hour): −
MBC test growth score ([2]; 50% preservative, 72 hour): −
MBC test growth score ([2]; 60% preservative, 8 hour): −
MBC test growth score ([2]; 60% preservative, 24 hour): −
MBC test growth score ([2]; 60% preservative, 48 hour): −
MBC test growth score ([2]; 60% preservative, 72 hour): −
MBC test growth score ([2]; 70% preservative, 8 hour): −
MBC test growth score ([2]; 70% preservative, 24 hour): −
MBC test growth score ([2]; 70% preservative, 48 hour): −
MBC test growth score ([2]; 70% preservative, 72 hour): −
MBC test growth score ([2]; 80% preservative, 8 hour): −
MBC test growth score ([2]; 80% preservative, 24 hour): −
MBC test growth score ([2]; 80% preservative, 48 hour): −
MBC test growth score ([2]; 80% preservative, 72 hour): −
MBC test growth score ([2]; 90% preservative, 8 hour): −
MBC test growth score ([2]; 90% preservative, 24 hour): −
MBC test growth score ([2]; 90% preservative, 48 hour): −
MBC test growth score ([2]; 90% preservative, 72 hour): −
MBC test growth score ([2]; 100% preservative, 8 hour): −
MBC test growth score ([2]; 100% preservative, 24 hour): −
MBC test growth score ([2]; 100% preservative, 48 hour): −
MBC test growth score ([2]; 100% preservative, 72 hour): −
